# Laboratory results taken from US12435087B2, “Modulators of DCN-1 and methods of use thereof” (Cellarity, Inc., priority 2023, dated 2025).
# Read-outs that look alike come from different tables or passages of the source.
# Target: DCN1 (DCUND1) protein PONY domain (Homo sapiens (Human), UniProt Q96GG9)
# Test: TR-FRET assay (binding to DCN-1, displacement of FAM-labeled probe)
# From the text: (§1) The TR-FRET assay was designed following the Scott et al. protocol (Scott et al., Nat Chem Biol. 2017 August; 13(8): 850-857. doi:10.1038/nchembio.2386). The recombinant form of the DCN1 (DCUND1) protein PONY domain was produced using an E. coli expression system at Viva Biotech (China). The DCN1 protein was biotinylated (EZ sulfo-NHS-LC-biotin; Thermofisher) for labeling with streptavidin terbium (Tb) cryptate in the reaction. The probe was changed to a non-covalent DCN1 inhibitor labeled with carboxyfluorescein (FAM; Zhou et al., Nat Commun. 2017; 8: 1150. doi: 10.1038/s41467-017-01243-7). Buffer conditions were modified to enhance protein stability by exchanging Tween20 for TritonX and increasing NaCl to 200 mM. The compounds were screened against 5 nM DCN1 and 20 nM FAM-probe or 0.31 nM DCN1 and 900 nM total probe (100 nM FAM-labeled plus 800 nM unlabeled). The TR-FRET ratio between Tb-DCN1 and the FAM-labeled probe was measured in a 384-well opti-plate (Perkin Elmer) using a plate reader (BMG) at 1, 5, and 24 hrs after treatment with compound (final DMSO concentration of 0.1%). The ratio was normalized to the high (DCN1 and FAM-probe) and low (DCN1 and no probe) controls for a readout of % activity (=100*(x−low)/(high−low).
# A TR-FRET assay was performed to evaluate the ability of the compounds to bind the DCN-1 protein.
# as §1, with “850-857. Doi: 10.1038/nchembio.2386).” for “850-857. doi:10.1038/nchembio.2386).”, “the DCNI” for “the DCN1”, “1150. Doi:” for “1150. doi:”, “0.1%).” for “0.1%). The ratio was normalized to the high (DCN1 and FAM-probe) and low (DCN1 and no probe) controls for a readout of % activity (=100*(x−low)/(high−low).”
# [1] = 24 hr after treatment with compound, read-out: TR FRET IC50 24 hr
# [2] = TR FRET IC50 1 hr (nM), 1 hr after treatment with compound
# DCN1 (DCUND1) protein PONY domain, sequence (Q96GG9 60-248): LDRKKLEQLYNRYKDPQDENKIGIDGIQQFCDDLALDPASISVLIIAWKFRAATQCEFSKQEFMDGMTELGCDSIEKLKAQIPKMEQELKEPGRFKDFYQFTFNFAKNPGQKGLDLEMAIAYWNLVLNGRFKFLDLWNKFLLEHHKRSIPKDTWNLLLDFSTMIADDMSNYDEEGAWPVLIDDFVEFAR
Structure (SMILES),IC50 [1] [nM],IC50 [2] [nM],"IC50 (read-out: TR FRET IC50 1 hr, 1 hr after treatment with compound) [nM]"
"C=C(F)C(=O)Nc1cccc([C@H]2c3c(C)nn(-c4ccccc4)c3N(CC)C(=O)[C@@H]2NC(=O)c2cccc(C(F)(F)F)c2)c1 (racemic) [Compound I-140, N-((4S,5R)-7-ethyl-4-(3-(2-fluoroacrylamido)phenyl)-3-methyl-6-oxo-1-phenyl-4,5,6,7-tetrahydro-1H-pyrazolo[3,4-b]pyridin-5-yl)-3(trifluoromethyl) benzamide]",> 3000,> 3000,–
CCN1C(=O)[C@@H](NC(=O)c2cccc(C(F)(F)F)c2)[C@H](c2cccc(CNC(=O)/C=C/C(=O)OC)c2)c2cnn(-c3ccccc3)c21 (racemic) [Compound I-143],200 to 1000,1000 to 3000,–
CCN1C(=O)[C@@H](NC(=O)c2cccc(C(F)(F)F)c2)[C@H](c2cccc(NC(=O)/C(C)=C/C(=O)OC)c2)c2c(C)nn(-c3ccccc3)c21 (racemic) [Compound I-145],200 to 1000,1000 to 3000,–
"C=C(CN1CCOCC1)C(=O)Nc1cccc([C@H]2c3c(C)nn(-c4ccccc4)c3N(CCO)C(=O)[C@@H]2NC(=O)c2cccc(C(F)(F)F)c2)c1 (racemic) [Compound I-147, rac-N-((4R,5S)-7-(2-hydroxyethyl)-3-methyl-4-(3-(2-(morpholinomethyl)acrylamido)phenyl)-6-oxo-1-phenyl-4,5,6,7-tetrahydro-1H-pyrazolo[3,4-b]pyridin-5-yl)-3-(trifluoromethyl)benzamide]",≤ 200,≤ 200,–
CCN1C(=O)[C@@H](NC(=O)c2cccc(C(F)(F)F)c2)[C@@H](c2cccc(NC(=O)C3=CCN(C)C3)c2)c2c(C)nn(-c3ccccc3)c21 (racemic) [Compound I-148],200 to 1000,1000 to 3000,–
CCN1C(=O)[C@@H](NC(=O)c2cccc(C(F)(F)F)c2)[C@H](c2ccccc2CNC#N)c2c(C)nn(-c3ccccc3)c21 (racemic) [Compound I-149],200 to 1000,1000 to 3000,–
C=C(CN1CCOCC1)C(=O)NCc1ccccc1[C@@H]1c2cnn(-c3ccccc3)c2N(CC)C(=O)[C@H]1NC(=O)c1cccc(C(F)(F)F)c1 (racemic) [Compound I-153],≤ 200,–,≤ 200
CCN1C(=O)[C@@H](NC(=O)c2cccc(C(F)(F)F)c2)[C@H](c2cccc(NC(=O)/C=C(\C)C(=O)OC)c2)c2c(C)nn(-c3ccccc3)c21 (racemic) [Compound I-157],200 to 1000,1000 to 3000,–
"CCN1C(=O)[C@H](NC(=O)c2cccc(C(F)(F)F)c2)[C@@H](c2cccc(NC(=O)/C=C/CN(C)C)c2)c2c(CN(C)C)nn(-c3ccccc3)c21 (racemic) [Compound I-212, ˜{N}—[˜{rac}-(4˜{S},5˜{R})-3-[(dimethylamino)methyl]-7-ethyl-6-oxo-1-phenyl-4-[3-[[˜{rac}-(˜{E})-4-(dimethylamino)but-2-enoyl]amino]phenyl]-4,5-dihydropyrazolo[3,4-b]pyridin-5-yl]-3-(trifluoromethyl)benzamide]",≤ 200,200 to 1000,–
"CCN1C(=O)[C@H](NC(=O)c2cccc(C(F)(F)F)c2)[C@@H](c2cccc(NC(=O)/C=C/CN(C)C)c2)c2c(CO)nn(-c3ccccc3)c21 (racemic) [Compound I-213, ˜{N}—[˜{rac}-(4˜{S},5˜{R})-7-ethyl-3-(hydroxymethyl)-6-oxo-1-phenyl-4-[3-[[˜{rac}-(˜{E})-4-(dimethylamino)but-2-enoyl]amino]phenyl]-4,5-dihydropyrazolo[3,4-b]pyridin-5-yl]-3-(trifluoromethyl)benzamide]",200 to 1000,1000 to 3000,–
C/C=C(/CN1CCN(C2COC2)CC1)C(=O)NCc1cccc([C@@H]2c3cnn(-c4ccccc4)c3N(CC)C(=O)[C@H]2NC(=O)c2nccc(C(F)(F)F)n2)c1 (racemic) [Compound I-257],1000 to 3000,1000 to 3000,–
